One series has as its system Gastric Acid Secretion. The series can be described thus: Histamine-stimulated gastric acid secretion in Heidenhain pouch dogs. Format: in vivo, beagle dogs. The following applies: histamine s.c. 1 hour after drug administration. As to the method: Six male beagle dogs (13 to 17kg) with well-established Heidenhain pouches were used for the construction of gastric acid secretion response curves. Food was withheld but water allowed for 18 hours before each experiment. Histamine (60 Mg/kg/hr) was administered subcutaneously 1 hour after drug administration. The pouch secretion was allowed to drain into a collection vessel which was changed every 15 minutes. Gastric juice volume was recorded, and acid concentration was determined by titration with 0.05N NaOH up to pH 7.0 using an automatic titrator (Hiranuma Sangyo Co., COMTITE-7).

A short description of a further series: in vivo. Also noted: species or system Fischer-rats. To be noted: rat, po. As to the method:
That is, LD50(p.o.) of the compound was higher than 1,000 mg/kg.

The structures appear in SMILES notation.

`Cc1nc2c(OCc3ccccc3)cccn2c1CC#N` [Known compound A, reference compound]: the “Gastric Acid Secretion Inhibitory Rate (%) Pouch Dog 3 mg/kg p.o.” value in the series with Gastric Acid Secretion came out at 36%.
As to `C=CCOc1cccn2c(CC#N)c(C)nc12` [Known compound B, reference compound], the “Gastric Acid Secretion Inhibitory Rate (%) Pouch Dog 3 mg/kg p.o.” value in the series on Gastric Acid Secretion is given as 21%.
For orientation: LD50 means the dose at which mortality reaches 50%. Consider `CC(C)=CCOc1cccn2c(CC#N)c(C)nc12` [Example 16, 3-Cyanomethyl-2-methyl-8-[(3-methyl-2-butenyl)-oxy]imidazo[1,2-a]pyridine], for which the “Gastric Acid Secretion Inhibitory Rate (%) Pouch Dog 3 mg/kg p.o.” value with Gastric Acid Secretion was found to be 82%. In “in vivo”, this compound showed a median lethal dose (LD50) at 24 h greater than 1000 mg/kg.
On to `CCCCCOc1cccn2c(CC#N)c(C)nc12` [Example 12, 3-Cyanomethyl-2-methyl-8-pentyloxyimidazo-[1,2-a]pyridine], for which the “Gastric Acid Secretion Inhibitory Rate (%) Pouch Dog 3 mg/kg p.o.” value in the series on Gastric Acid Secretion was found to be 61%.
Turning to `Cc1nc2c(OCC3CCCCC3)cccn2c1CC#N` [Example 11, 3-cyanomethyl-8-cyclohexylmethoxy-2-methylimidazo-[1,2-a]-pyridine], in the series with Gastric Acid Secretion, the “Gastric Acid Secretion Inhibitory Rate (%) Pouch Dog 3 mg/kg p.o.” value came out at 67%.

The values are drawn from patent EP0266890A1, “Imidazopyridine derivatives, their production, and pharmaceutical compositions containing them” (YAMANOUCHI PHARMACEUTICAL CO. LTD., priority 1986, dated 1988).
